Laboratory results reported in patent US20040171086A1, “Selective modulation of TLR-mediated biological activity” (3M Innovative Properties Company, priority 2003, published 2004).

Each molecule was assayed against T1, TLR6 (Homo sapiens, UniProt Q9Y2C9) (assay: IFN-α1-luciferase reporter assay in genetically modified Namalwa cells, TLR6). Details: 10 μM IRM, 18 hours.
T1 construct: expressed in transfected cells; host or cells: Namalwa (ATCC CRL-1432), pCI-TLR6 vector, G418 selected
T1 sequence (Q9Y2C9 32-796): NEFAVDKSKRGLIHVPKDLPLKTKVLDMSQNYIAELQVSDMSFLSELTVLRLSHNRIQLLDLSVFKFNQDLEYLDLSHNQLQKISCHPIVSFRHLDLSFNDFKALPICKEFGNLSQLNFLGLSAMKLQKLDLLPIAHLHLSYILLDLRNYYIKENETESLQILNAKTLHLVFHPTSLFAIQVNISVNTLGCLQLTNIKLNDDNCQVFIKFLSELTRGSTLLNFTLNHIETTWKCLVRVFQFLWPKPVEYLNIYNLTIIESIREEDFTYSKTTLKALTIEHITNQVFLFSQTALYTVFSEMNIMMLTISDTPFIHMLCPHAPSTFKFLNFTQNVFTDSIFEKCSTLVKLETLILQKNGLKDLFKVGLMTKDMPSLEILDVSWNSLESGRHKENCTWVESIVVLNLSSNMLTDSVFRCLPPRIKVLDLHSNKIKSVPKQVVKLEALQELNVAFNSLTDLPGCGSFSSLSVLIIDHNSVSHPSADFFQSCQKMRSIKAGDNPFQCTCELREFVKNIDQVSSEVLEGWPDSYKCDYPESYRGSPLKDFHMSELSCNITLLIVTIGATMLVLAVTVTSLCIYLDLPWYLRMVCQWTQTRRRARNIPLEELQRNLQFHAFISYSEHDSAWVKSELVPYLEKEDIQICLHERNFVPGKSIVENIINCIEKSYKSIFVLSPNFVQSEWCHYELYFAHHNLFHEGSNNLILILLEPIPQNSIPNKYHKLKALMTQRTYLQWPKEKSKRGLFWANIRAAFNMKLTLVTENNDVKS
Format: cell-based
Description: Results are shown in Table 6 and are expressed as fold induction of IFN-α1 —induced luciferase signal, again with respect to a vehicle control.
The assay identified TLR6-selective compounds (i.e., compounds that modulate TLR6-mediated activity, but not TLR7-mediated activity), TLR7-selective compounds (compounds that modulate TLR7-mediated activity, but not TLR6-mediated activity), and compounds that modulate cellular activity through both TLR6 and TLR7.
Unless otherwise indicated, all incubations were performed at 37° C. with 5% CO2 at 98% humidity.
Culture medium was prepared from complete RPMI 1640 medium (BioSource International, Inc., Camarillo, Calif.). Fetal bovine serum (Atlas Biologicals, Inc., Ft. Collins, Colo.) was added to a final concentration of 7.5% (vol/vol); L-glutamine (BioSource International, Inc.) was added to 5 mM; and sodium pyruvate (BioSource International, Inc.) was added to 1 mM.
Namalwa cells were grown by incubation in culture medium overnight. Cells were harvested by centrifugation in a tabletop centrifuge (1200 RPM for 5 minutes), and then resuspended in phosphate buffered sucrose to a concentration of 1.3×10^7 cells/mL.
For each transfection, a 750 μL aliquot of the cell suspension was placed in an electroporation cuvette with 4 mm gaps. 10 μg of the pIFN-α1-luc vector and 10 μg of the pCI-TLR6 vector were added to the electroporation cuvette. The cell and vector mixtures were incubated at room temperature for 5 minutes. The cells were electroporated using a BioRad Gene Pulser (BioRad Laboratories, Hercules, Calif.) set to at 500 μF capacitance and […], then incubated at room temperature for 5 minutes.
The electroporated cells were suspended in 10 mLs of culture medium and incubated overnight. Dead cells and debris were removed after 24 hours using a MACS Dead Cell Removal kit (Miltenyi Biotec, Auburn, Calif.). Cells were resuspended in 10 mL of culture medium and incubated for an additional 24 hours.
Transfected cells were selected by adding G418 (Promega Corp., Madison, Wis.) to a final concentration of 1 mg/mL and incubating the cells for seven days.
The selected transfected cells were counted and resuspended to a concentration of 1×10^6 cell per mL in culture medium. 100 μl aliquots of cells were placed in the wells of a white-walled, white-bottomed 96-well plate (Corning, Inc., Corning, N.Y.). 1.0 μL of an IRM compound from Table 1 (prepared at 1 mM in 100% DMSO) was added to some cell aliquots so that the final concentration of IRM compound was 10 μM. As a positive control, some cell aliquots were incubated with Sendai virus instead of IRM compound. As a negative control, some cell aliquots were incubated with DMSO without IRM compound. In all cases, the cells were incubated for 18 hours.
The plates were equilibrated to room temperature before one volume of reconstituted LucLight Plus (Packard Instruments, Meriden, Conn.) was added to each aliquot of cells. Each well of the plate was read on an LJL Analyst (LJL Biosystems, Inc., Sunnyvale, Calif.) set with a 5 minute dark adapt. Results are shown in Table 6 and are expressed as fold increase of the IFN-αl—induced luciferase signal compared to a DMSO control.
With `CCOCc1nc2c(N)nc3ccccc3c2n1CC(C)C` [IRM1, 2-(ethoxymethyl)-1-(2-methylpropyl)-1H-imidazo[4,5-c]quinolin-4-amine] the “TLR6: fold increase of the IFN-α1-induced luciferase signal compared to a DMSO control” value (from here on “TLR6: fold increase”) was 7.93 fold increase.
In the case of `COCCc1nc2c(N)nc3ccccc3c2n1CCOCCN(C)C(=O)C1CCCCC1` [IRM3, N-(2-{2-[4-amino-2-(2-methoxyethyl)-1H-imidazo[4,5-c]quinolin-1-yl]ethoxy}ethyl)-N-methylcyclohexanecarboxamide], the “TLR6: fold increase” value is reported as 10.24 fold increase.
In the case of `CCCCc1nc2c(N)nc3ccccc3c2n1CCCCCS(C)(=O)=O` [IRM6, 2-butyl-1-[5-(methylsulfonyl)pentyl]-1H-imidazo[4,5-c]quinolin-4-amine], the “TLR6: fold increase” value is reported as 13.61 fold increase.
With `CCc1nc2c(N)nc3ccccc3c2n1CCCCNC(=O)C1CCCCC1` [IRM8, N-[4-(4-amino-2-ethyl-1H-imidazo[4,5-c]quinolin-1-yl)butyl]cyclohexanecarboxamide] the “TLR6: fold increase” value was 12.49 fold increase.
In the case of `CCc1nc2c(N)nc3ccccc3c2n1CCCCSc1cc(Cl)cc(Cl)c1` [IRM14, 1-{4-[(3,5-dichlorophenyl)thio]butyl}-2-ethyl-1H-imidazo[4,5-c]quinolin-4-amine], the “TLR6: fold increase” value is reported as 2.73 fold increase.
`CCOCc1nc2c(N)nc3c(c2n1CC(C)(C)O)CCCC3` [IRM16, 4-amino-2-ethoxymethyl-α,α-dimethyl-6,7,8,9-tetrahydro-1H-imidazo[4,5-c]quinoline-1-ethanol] was tested, and the “TLR6: fold increase” value was 12.95 fold increase.
With `COCCc1nc2c(N)nc3ccccc3c2n1CCOCCNC(=O)Nc1ccccc1` [IRM19, N-(2-{2-[4-amino-2-(2-methoxyethyl)-1H-imidazo[4,5-c]quinolin-1-yl)ethoxy}ethyl)-N′-phenylurea] the “TLR6: fold increase” value was 12.60 fold increase.
With `CCC(C)NC(=S)NCCn1c(CCOC)nc2c(N)nc3ccccc3c21` (stereo not drawn) [IRM21, N-{2-[4-amino-2-(2-methoxyethyl)-1H-imidazo[4,5-c]quinolin-1-yl]ethyl}-N′-sec-butylthiourea] the “TLR6: fold increase” value was 17.98 fold increase.
`COCCc1nc2c(N)nc3c(c2n1CC(C)(C)NS(C)(=O)=O)CCCC3` [IRM22, N-{2-[4-amino-2-(2-methoxyethyl)-6,7,8,9-tetrahydro-1H-imidazo[4,5-c]quinolin-1-yl]-1,1-dimethylethyl}methanesulfonamide] was tested, and the “TLR6: fold increase” value was 16.25 fold increase.
